Source: patent US20120251511A1, “COMPOSITION AND PRODUCTS FOR ENABLING THE PRODUCTION OF EQUOL IN VIVO” (priority 2011, published 2012)

Tests used:
[1] = HPLC/EC determination of daidzein and equol levels in blood serum and urine after the BLDG formula; details: for concentration at 1 day / concentration at 7 day / concentration at 21 day: human, oral; for concentration at 1 day: Day 1, plasma; for concentration at 7 day: Day 7, plasma
Protocol: The subject's diet was limited to 20 grams of saturated fat per day. The subject also consumed a healthy amount of grains, fruits and vegetables.
Blood serum and urine samples were taken on days 1, 7 and 21 and the samples were sent to an independent laboratory for analysis.
Equol in the blood serum was tested (untreated) as unbound to sex hormone-binding globulin (SHBG).

[2] = in vitro; cited from earlier work
[3] = test system: androgenic alopecia (hair loss); experiment: Observed effects on androgenic alopecia (hair loss); assay type: in vivo, human; details: inulin supplements 4 grams daily, one individual
From the text: The goal of the first experiment, performed in June 2006, was to investigate the ability for the BLDG formula to show both objective and subjective results. Objective results included blood and urine samples testing for the presence of equol. Subjective results included the documentation of observed effects on androgenic alopecia (hair loss) and acne vulgaris.
The test subject was a person, in good overall health. Subject was physically active, had adequate nutrition and was not taking any drugs or supplements that were known to cause hair loss or acne.
The subject was experiencing a high degree of shedding of the hair from areas of the scalp consistent with male pattern baldness. Miniaturization of the hair follicles on the scalp was noticeable along the hair line, part line and vertex upon close observation. […] Generally, the subject would have been considered a Class II on the Norwood-Hamilton scale, but with some increased vertex thinning more attributable to a Class III.

[4] = Day 21, urine, BLDG formula regimen equivalent to Example 1
[5] = plasma, unbound equol, Mean, BLDG formula regimen equivalent to Example 1
[6] = plasma, unbound equol, ng/ml I, BLDG formula regimen equivalent to Example 1
[7] = plasma, unbound equol, ng/ml II, BLDG formula regimen equivalent to Example 1

O=c1c(-c2ccc(O)cc2)coc2cc(O)ccc12 [Daidzein, 4,7-Dihydroxyisoflavone]
daidzein, Mean [1, 4]: 43974.11 ng/mL | daidzein, ng/ml I [1, 4]: 44246.59 ng/mL | daidzein, ng/ml II [1, 4]: 43701.63 ng/mL | increase in daidzein levels between Day 7 and Day 21 ([1]; blood serum, BLDG formula): 45%

Oc1ccc([C@H]2COc3cc(O)ccc3C2)cc1 [S-equol]
increase in equol concentration between Day 7 and Day 21 ([1]; blood serum, BLDG formula): 3% | concentration at 1 day [1, 5]: 0 ng/mL | concentration at 7 day [1, 5]: 127 ng/mL | concentration at 21 day ([1]; plasma, unbound equol, Mean, Day 21, plasma, BLDG formula regimen equivalent to Example 1): 131 ng/mL | concentration at 1 day [1, 6]: 0 ng/mL | concentration at 7 day [1, 6]: 137 ng/mL | concentration at 21 day ([1]; plasma, unbound equol, ng/ml I, Day 21, plasma, BLDG formula regimen equivalent to Example 1): 122 ng/mL | concentration at 1 day [1, 7]: 0 ng/mL | concentration at 7 day [1, 7]: 117 ng/mL | concentration at 21 day ([1]; plasma, unbound equol, ng/ml II, Day 21, plasma, BLDG formula regimen equivalent to Example 1): 141 ng/mL | concentration at 21 day ([1]; urine, equol, Mean, Day 21, urine, BLDG formula regimen equivalent to Example 1): 638 ng/mL | concentration at 21 day ([1]; urine, equol, ng/ml I, Day 21, urine, BLDG formula regimen equivalent to Example 1): 613 ng/mL | concentration at 21 day ([1]; urine, equol, ng/ml II, Day 21, urine, BLDG formula regimen equivalent to Example 1): 662 ng/mL | blood levels that may be required to fully mitigate DHT at normal levels of circulation in men [2]: 100 ng/mL

inulin
effect of added inulin on BLDG dosage needed [3]: able to cut his BLDG dosage in half
